Values quoted from earlier work, collected in patent US6231888A, “Local delivery of non steroidal anti inflammatory drugs (NSAIDS) to the colon as a treatment for colonic polyps” (Perio Products Ltd., priority 1998, dated 2001).

Assays:
colonic biopsies = conditions: diclofenac-induced colitis
colorectal cancer = conditions: chronic use
[1] = system: HT-29 colon adenocarcinoma cell line
colorectal mucosa = conditions: FAP patients
colonic polyps = conditions: daily dose of 300 mg, taken systemically
[2] = system: sporadic colorectal adenomas; conditions: 300 mg or 150 mg daily for one year; polyps 4-12 mm
[3] = system: HT-29 colon adenocarcinoma cells; conditions: HT-29 cells
[4] = system: SW480 colon carcinoma cells

In the case of `O=C(O)Cc1ccccc1Nc1c(Cl)cccc1Cl` [diclofenac], the “Apoptotic bodies in colonic biopsies” value (colonic biopsies) is given as “increased levels of apoptotic bodies”.
For `CN1C(C(=O)Nc2ccccn2)=C(O)c2ccccc2S1(=O)=O` [piroxicam], the COX-2 inhibition (COX-2) is given as “strong inhibitory effect on COX-2”.
In the case of `CC(=O)Oc1ccccc1C(=O)O` [aspirin], the “Reduction in the incidence of colorectal cancer” value (colorectal cancer) is given as 50-70%.
In the case of `CC1=C(CC(=O)O)c2cc(F)ccc2/C1=C\c1ccc([S+](C)[O-])cc1` (stereo not shown) [sulindac], the COX-1 inhibition (COX-1) is listed as “mainly exerts an inhibitory effect on COX-1”, the Apoptosis [1] is listed as “induction of apoptosis” and the “Cell proliferation or differentiation” value [1] is listed as “no evidence of cell proliferation or differentiation”. For the same compound, the “Regression of adenomatous polyps” value (sporadic colonic polyps) was “no similar regression of adenomatous polyps”, the “Reduction product formed by colonic microflora” value (colonic microflora) was “exclusively to sulindac sulfide” and the COX-2 inhibition (COX-2) was “weak inhibitor of COX-2”. The Colonic mucosal apoptosis (colorectal mucosa) was “increased levels of colonic mucosal apoptosis”, the Proliferation (colorectal mucosa) was “No effects on proliferation” and the “Number and size of colonic polyps” value (colonic polyps) was “significantly decreased”. For the same compound, the “Time of peak plasma concentration” value (oral tablet) was “about two” and the “Regression/progression of sporadic colorectal adenomas” value [2] was “induced regressions and prevented the progression of sporadic colorectal adenomas”.
In the case of `CSc1ccc(/C=C2/C(C)=C(CC(=O)O)c3cc(F)ccc32)cc1` [sulindac sulfide], the COX-2 inhibition (COX-2) is listed as “potent inhibitor of COX-2”, the “Potency in reducing proliferation and inhibiting the cell cycle vs sulindac” value [3] is listed as “six times more potent than sulindac” and the Cell cycle inhibition [4] is listed as “induced cell cycle inhibition”. For the same compound, the “Time within which plasma concentration exceeds that of sulindac” value (in vivo, po) was “four”.
For `Cc1cnc(NC(=O)C2=C(O)c3ccccc3S(=O)(=O)N2C)s1` [Meloxicam], the COX-2 inhibition (COX-2) is given as “selective COX-2 inhibitor”.
